From US20050118641A1, “Design Technique for Use in Engineering of Deamidation Rates of Peptides, Proteins, Hormones, and Peptide-Like, Protein-Like and Hormone-Like Molecules” (priority 2003, published 2005) come the findings set out here.

Holding throughout (format): physicochemical
Data set [1] in a line: Deamidation of Gln pentapeptides GlyXxxGlnYyyGly (medians over Xxx). To be noted: Gln versus Asn peptide. The text has this: (§1) Median values for carboxyl side residues of Asn and Gln were used in these derivations. The measurements for Asn are the most reliable and are used for these derivations. […] The half-time of hydrolysis was assumed to be 8010 days, but may be faster or slower. Regardless of the derivation based on Asn, calculations of Gln based on these values are found to approximately agree with the currently available data.
(§2) The natural log of the median hydrolysis-corrected rate constants times 100 (s^−1) for the Asn and Gln pentapeptides as a function of carboxyl-side residue as computed from the experimental data are listed in Table 1. The first columns are (100)(ln(k)) and are directly proportional to the Arrhenius activation energy. The second columns are normalized to Gly. This leaves only the side-chain effects and also defines the effect of the Gly hydrogen side-chain or a similar atom with mostly steric effects in this β-position as zero.
This model for Asn deamidation is also applicable to Gln deamidation, although Gln deamidation rates have not been as well characterized. While there may be important differences in the functional group effects for the longer Gln chain, the steric effects are similar as illustrated in FIG. 6. […] The fundamental difference between Asn and Gln rates has been removed by subtracting the Gln values from GlyXxxGlnGlyGly and the Asn values from GlyXxxAsnGlyGly.

Data set [2] can be described thus: Deamidation of Asn pentapeptides GlyXxxAsnYyyGly (medians over Xxx).
Text: as §1, §2
For most Asn peptides the computed result should be within 10% or less of the experimental value in 37° C., pH 7.4, 0.15 M Tris-HCl buffer or similar conditions. Gln rates are more affected by hydrolysis and cannot be verified to as high an accuracy with the current data. For Gln peptides and long lived Asn peptides, correction for hydrolysis should be made. With a hydrolysis value of 8010 days: t1/2total=1/(1/8010+1/t1/2calculated)

Data set [3] is described as follows: Deamidation of insulin at Asn(B3). Here is the method: As an example, consider the sequence Phe-ValAsn(B3)GlnHis of insulin. This peptide deamidates at Asn(B3) with a half-time of 136 days at 37° C., pH 7.4 sodium acetate, 0.1% methyl paraben, 0.7% NaCl.

Regarding GlyXxxGlnGlyGly, the “difference between GlyXxxGlnGlyGly and GlyXxxAsnGlyGly, (100)ln(k) scale” value in data set [1] stood at 644.8. In the case of GlyXxxAsnThrGly, the experimental deamidation half-time in data set [2] (37° C., pH 7.4, 0.15 M Tris-HCl buffer) is listed as 46.2 days. Take insulin: in data set [3] (37° C., pH 7.4 sodium acetate, 0.1% methyl paraben, 0.7% NaCl), the “deamidation half-time at Asn(B3)” value turned out to be 136 days. The “(100)ln(k) subtracted from the AsnGly value” in data set [3] (converted from the 136 day half-time) was found to be 478.3.

For GlyXxxAsnGlyGly, the “deamidation rate (50% chance of deamidating)” value in data set [2] is given as “about 1 day”.
